Source: patent US20190358974A1, “COMPOSITIONS AND PARTICLES CONTAINING CELLULOSIC FIBERS AND STABILIZED- AND/OR ACTIVATED- UREASE INHIBITORS, AS WELL AS METHODS OF MAKING AND USING THE SAME” (INTERNATIONAL PAPER COMPANY, priority 2016, published 2019)

Legend:
[1] = test system: Proteus mirabilis ATCC #7002; assay: Bacterial ammonia test: NH3 in headspace over fluff/SAP pad inoculated with bacteria in synthetic urine; assay type: cell-based; conditions: 400 ppm PPDA inside cellulosic pulp, stored dry at ambient conditions, 20 weeks
Excerpt: Test Pad Sample Preparation • 1. Place a non-woven carrier on the 50 mm diameter SCAN pad former screen, attach tube, tare, and place on SCAN test piece former. • 2. Weigh out 0.60 gm fiberized pulp. Fibers should be “fluffy”, well dispersed, and spread evenly in the weighing pan. • 3. Sprinkle 0.40 gm SAP evenly over the fiber. • 4. Start the vacuum and feed the SAP/fiber into the forming cone through the feed tube, ensuring that both materials are simultaneously introduced. • 5. Remove the pad assembly from the former and weigh. Lightly compress the pad and remove the tube. • 6. Lift the non-woven carrier with the pad off of the screen. • 7. Press to ˜3 mm • 8. Seal pad wrapped in non-woven in a plastic ziplok bag until testing.
This is the Test Inoculum Solution.
At the end of the designated exposure period, the ammonia in the headspace of the sealed jar is measured using the Drager system. The sampling end of the Drager tube is fitted with a needle which is inserted through the septum. A vent needle is inserted to allow withdrawal of the gaseous sample. The opposite end of the measuring tube is attached to the Drager pump. Ammonia is withdrawn according to the manufacturer specifications for the tube and the measurement recorded.
The PPDA treated pulp was then shredded by a lab hammermill to convert into fluff fibers. […]

[2] = Aging/degradation of PPDA on dry pulp, PPDA remaining tested by HPLC; assay type: physicochemical; conditions: 400 ppm PPDA on pulp stored on shelf as dry pulp, ambient conditions
Protocol: Bleached softwood pulp sheets were treated (sprayed) respectively with: 1) 400 ppm PPDA on pulp from water solution; 2) 400 ppm PPDA on pulp from PEG-200 solution; 3) 400 ppm PPDA on pulp from solution of 90% PEG-200 and 10% Talc powder. All the samples were dried on a dryer can at 195 F. They were then stored under room temperature (23 C) and 50% humidity chamber. The PPDA content remaining in the dry pulp samples was tested by HPLC.
They were then put into a controlled chamber with temperature of 55 C and 50% relative humidity. The PPDA content remaining in the dry pulp samples was tested by HPLC.
Accelerated aging study was done at 35 C and 50% RH with individual sheets thoroughly exposed to the environment. The control PPDA doses were 400 ppm and 1000 ppm based on the weight of the sheet, applied with water solution and dried. And the stabilized PPDA doses were also at 400 ppm and 1000 ppm on sheet, applied with 2% PPDA solution in PEG-200. The results are shown in the table below, and plotted in FIG. 4.
Aging test was also conducted on-shelf in the bag at room conditions. The result was shown in Table 12, and plotted in FIG. 5 in log scale.

[3] = cited from earlier work

NP(N)(=O)Oc1ccccc1 [PPDA, phenylphosphorodiamidate]
effectiveness against ammonia generation [1]: lost all its effectiveness against ammonia generation
stability inside cellulosic pulp [2]: not stable
stability of dry PPDA ([3]; dry): stable
stability in water ([3]; in water): not stable
